Literature values as cited in patent publication US20240376098A1, “METHODS OF TREATMENT USING BCN057, BCN077 AND ANALOGS” (BCN Biosciences L.L.C., priority 2021, published 2024).

Tested on: KRASG13R mutant MC38 tumor cell line
Conditions: cited from earlier work

## COc1ccc2cc(-c3nc4ccc(C)cn4c3NCc3ccco3)c(=O)[nH]c2c1 [BCN057, 3-[(Furan-2-ylmethyl)-amino]-2-(7-methoxy-2-oxo-1,2-dihydro-quinolin-3-yl)-6-methyl-imidazo[1,2-a]pyridin-1-ium]
BCN057 with radiation treatment versus radiation alone
  Tolerated radiation dose: able to tolerate much higher radiation doses
Mice receiving BCN057 versus control
  Tumor burden: significantly lower tumor burden than control
